Experimental findings from US6017918A, “Phenyl glycine compounds and methods of treating atherosclerosis and restenosis” (Warner-Lambert Company, priority 1999, dated 2000) are described below.

Bounds are passed on as bounds.

Assay [1] deals with apolipoprotein(a), [apo(a)], apolipoproteinB-100, [apoB-100], coupling reaction that generates Lp(a). In words: LPABC screen: lipoprotein(a) biochemical coupling assay, Lp(a) by ELISA. To be noted: recombinant apo(a) + HepG2 conditioned media, 67 minutes, 37° C.; ^a = multiple tests. From the text: The lipoprotein(a), [Lp(a)], biochemical coupling assay (LPABC) is used to characterize inhibitors of the apolipoprotein(a), [apo(a)], apolipoproteinB-100, [apoB-100], coupling reaction that generates Lp(a).
Protocol Conditioned media from 293 cells (ATCC CRL-1573), permanently transfected with an apo(a) 17-kringle cDNA expression construct (pcDNA-AMP, In Vitrogen, Carlsbad, Calif.) using standard molecular biology techniques, was used as a source of recombinant apo(a). The 293 cell conditioned media containing the recombinant apo(a) is diluted 1:3 with phosphate buffered saline (PBS) and 90 μL is pipetted into each well of a 96-well plate and placed into a 37° C. incubator for 10 minutes. Twenty microliters of a 0.3 to 50 μM solution of a compound of the present invention in PBS is added to the warmed plate. Ninety microliters of HepG2 (ATCC HB-8065) cell conditioned media diluted 1:3 with PBS is added to the apo(a)/compound mixture and mixed by pipetting up and down 5 times. The reaction is incubated for 67 minutes in a 37° C. incubator. A 100 μL aliquot of the reaction is removed and assayed for its Lp(a) content by an enzyme linked immunosorbent assay (ELISA).

In assay [2] the test system is Lp(a) production (HepG2^K17 cells). In words: LPA3 screen: inhibition of Lp(a) production in HepG2^K17 cells, Lp(a) by ELISA. Format: cell-based. To be noted: 8 h, Lp(a) normalized for total protein, ^a = multiple tests. The procedure: The LPA3 screen is used to identify compounds that inhibit Lp(a) production. This screen employs permanently transfected HepG2 cells (HepG2^K17) that are generated using an apo(a) 17-kringle cDNA expression construct (pcDNA-AMP, In Vitrogen, Carlsbad, Calif.) in accordance with methods that are well-known in molecular biology.
HepG2^K17 cells are seeded in 96-well plates at a density of 75,000 cells per well in 0.25 mL of Dulbecco's Modified Eagle Media (DMEM) containing 10% fetal bovine serum (FBS). Seeded plates are incubated overnight in a 37° C., 5% CO2 /95% […] incubator. The media is removed, replaced with (1) fresh media, or (2) fresh media plus 0.3 to 50 μM of a compound of the present invention in 20 μL of PBS, and the plates returned to the incubator for 8 hours. After the additional 8 hours of incubation, Lp(a) is assayed in the media by ELISA. Cells are digested with 0.5N NaOH overnight and assayed for total protein. Lp(a) values are normalized for total protein content.

Turning to `CCOC(=O)C(NCc1ccccc1F)c1cc(C(C)(C)C)c(O)c(C(C)(C)C)c1` (stereo not shown) [Example 40, (3,5-Di-tert-butyl-4-hydroxy-phenyl)-(2-fluoro-benzylamino]-acetic acid ethyl ester], the IC50 in assay [1] is 50.2 µM; in assay [2], greater than 74 µM.
Turning to `CCOC(=O)C(NCc1ccccc1Cl)c1cc(C(C)(C)C)c(O)c(C(C)(C)C)c1` (stereo not shown) [Example 33, (2-Chloro-benzylamino)-(3,5-di-tert-butyl-4-hydroxy-phenyl)-acetic acid ethyl ester], the half-maximal inhibitory concentration (IC50) is 43.4 µM in assay [1] and greater than 74 µM in assay [2].
For `CCOC(=O)C(NCc1ccc(Cl)cc1Cl)c1cc(C(C)(C)C)c(O)c(C(C)(C)C)c1` (stereo not shown) [Example 36, (3,5-Di-tert-butyl-4-hydroxy-phenyl)-(2,4-dichloro-benzylamino)-acetic acid ethyl ester], the results for the IC50 in assay [1] and in assay [2] were 47.9 µM and greater than 74 µM, respectively.
In the case of `CCOC(=O)C(NCc1ccc(O)c(OCC)c1)c1cc(C(C)(C)C)c(O)c(C(C)(C)C)c1` (stereo not shown) [Example 39, (3,5-Di-tert-butyl-4-hydroxy-phenyl)-(3-ethoxy-4-hydroxy-benzylamino)-acetic acid ethyl ester], the IC50 in assay [1] is 59.1 µM; in assay [2], greater than 74 µM.
Taken in the same sequence, the figures for `CCOC(=O)C(NCc1ccc([N+](=O)[O-])cc1)c1cc(C(C)(C)C)c(O)c(C(C)(C)C)c1` (stereo not shown) [Example 45, (3,5-Di-tert-butyl-4-hydroxy-phenyl)-(4-nitro-benzylamino)-acetic acid ethyl ester] were 96.8 µM and greater than 74 µM.
Taken in the same sequence, the figures for `CCOC(=O)C(NCc1ccncc1)c1cc(C(C)(C)C)c(O)c(C(C)(C)C)c1` (stereo not shown) [Example 3, (3,5-Di-tert-butyl-4-hydroxy-phenyl)-[(pyridin-4-ylmethyl)-amino]-acetic acid ethyl ester] were 7.27 µM and 25.4 µM.
Turning to `CCOC(=O)C(Nc1cccnc1)c1cc(C(C)(C)C)c(O)c(C(C)(C)C)c1` (stereo not shown) [Example 1, (3,5-Di-tert-butyl-4-hydroxy-phenyl)-[(pyridin-3-yl)-amino]-acetic acid ethyl ester], the concentration for half-maximal inhibition (IC50) in assay [1] stood at 6.48 µM; in assay [2], 7.6 µM.
The corresponding values for `CCOC(=O)C(NCc1ccc(O)c(OC)c1)c1cc(C(C)(C)C)c(O)c(C(C)(C)C)c1` (stereo not shown) [Example 49, (3,5-Di-tert-butyl-4-hydroxy-phenyl)-(4-hydroxy-3-methoxy-benzylamino)-acetic acid ethyl ester] are 15 µM and greater than 74 µM.
Taken in the same sequence, the figures for `CCOC(=O)C(NCc1ccccc1)c1cc(C(C)(C)C)c(O)c(C(C)(C)C)c1` (stereo not shown) [Example 5, Benzylamino-(3,5-di-tert-butyl-4-hydroxy-phenyl)-acetic acid ethyl ester] were 10.3 µM and 76 µM.
`CCOC(=O)C(NCc1cc(Cl)cc(Cl)c1O)c1cc(C(C)(C)C)c(O)c(C(C)(C)C)c1` (stereo not shown) [Example 35, (3,5-Di-tert-butyl-4-hydroxy-phenyl)-(3,5-dichloro-2-hydroxy-benzylamino)-acetic acid ethyl ester]: the results for the IC50 in assay [1] and in assay [2] were 15.9 µM and greater than 74 µM, respectively.
The corresponding values for `CCOC(=O)C(NCc1ccccc1C(F)(F)F)c1cc(C(C)(C)C)c(O)c(C(C)(C)C)c1` (stereo not shown) [Example 47, (3,5-Di-tert-butyl-4-hydroxy-phenyl)-(2-trifluoromethyl-benzylamino)-acetic acid ethyl ester] are 33.4 µM and greater than 74 µM.
The corresponding values for `CCOC(=O)C(c1cc(C(C)(C)C)c(O)c(C(C)(C)C)c1)N1CCCC1` (stereo not shown) [Example 52, (3,5-Di-tert-butyl-4-hydroxy-phenyl)-(N-pyrollidinyl)-acetic acid ethyl ester] are 1.55 µM and 2.7 µM.
The corresponding values for `CCOC(=O)C(NCc1cc(O)c(OC)c(OC)c1)c1cc(C(C)(C)C)c(O)c(C(C)(C)C)c1` (stereo not shown) [Example 14, (3,5-Di-tert-butyl-4-hydroxy-phenyl)-(3-hydroxy-4,5-dimethoxy-benzylamino)-acetic acid ethyl ester] are 10.6 µM and 9.3 µM.
Take `CCOC(=O)C(NCc1cc2c(cc1N)OCO2)c1cc(C(C)(C)C)c(O)c(C(C)(C)C)c1` (stereo not shown) [Example 31, [(6-Amino-benzo[1,3]dioxol-5-ylmethyl)-amino]-(3,5-di-tert-butyl-4-hydroxy-phenyl)-acetic acid ethyl ester]: the values for the half-maximal inhibitory concentration (IC50) in assay [1] and in assay [2] were 21 µM and greater than 74 µM, respectively.
Taken in the same sequence, the figures for `CCOC(=O)C(NCc1ccccn1)c1cc(C(C)(C)C)c(O)c(C(C)(C)C)c1` (stereo not shown) [Example 4] were 6.48 µM and 9.1 µM.
For `CCOC(=O)C(NCc1ccc(N)cc1)c1cc(C(C)(C)C)c(O)c(C(C)(C)C)c1` (stereo not shown) [Example 30, (4-Amino-benzylamino)-(3,5-di-tert-butyl-4-hydroxy-phenyl)-acetic acid ethyl ester], the values for the half-inhibitory concentration (IC50) in assay [1] and in assay [2] were 62.6 µM and greater than 74 µM, respectively.
Take `CCOC(=O)C(c1cc(C(C)(C)C)c(O)c(C(C)(C)C)c1)N(Cc1cccnc1)CC1CCCCC1` (stereo not shown) [Example 16, (Cyclohexylmethyl-pyridin-3-ylmethyl-amino)-(3,5-di-tert-butyl-4-hydroxy-phenyl)-acetic acid ethyl ester]: the results for the IC50 in assay [1] and in assay [2] were 1.48 µM and 3.7 µM, respectively.
